Laboratory results reported in patent US11780841B2, “3,6-methano-1H-pyrrolo[3,2-b]pyridine and 3,6-methano-1H-pyrrolo[3,2-c]pyridine compounds and medicaments using same” (priority 2018, dated 2023).
Where two headings read alike, the source gives them in different places.

Test system: recombinant rabies virus 1088 strain expressing Gaussia Luciferase (GLuc) (1088/GLuc)
Type: cell-based

Structure (SMILES)	IC50 (read-out: Anti-rabies activity) [µM]	IC50 (read-out: IC50) [µM]
CC(C)CNC(=O)[C@]12NC[C@@H]3C[C@H]1CN(CC(C)C)[C@H]2[C@@H]3Cc1ccccc1 (relative stereo) [IB-3]	10 to 30	19.6
CC(C)CNC(=O)[C@]12NC[C@@H]3C[C@H]1CN(Cc1ccccc1)[C@H]2[C@@H]3CC(C)C (relative stereo) [IB-4]	10 to 30	19.2
CC(C)C[C@@H]1[C@@H]2CN[C@@]3(C(=O)NCc4ccccc4)[C@@H](C2)CN(CC(C)C)[C@@H]13 (relative stereo) [IB-5]	10 to 30	18.2
CC(C)CCN1C[C@@H]2C[C@H]3CN[C@]2(C(=O)NCc2ccccc2)[C@@H]1[C@@H]3Cc1ccccc1 (relative stereo) [IB-9]	10 to 30	17
CC(C)C[C@@H]1[C@@H]2CN[C@@]3(C(=O)NCCc4ccccc4)[C@@H](C2)CN(Cc2ccccc2)[C@@H]13 (relative stereo) [IB-12]	10 to 30	15.5
Cc1cccc(C[C@@H]2[C@@H]3CN[C@@]4(C(=O)NCc5ccccc5)[C@@H](C3)CN(CC(C)C)[C@@H]24)c1 (relative stereo) [IB-13]	10 to 30	14.3
Cc1cccc(CNC(=O)[C@]23NC[C@@H]4C[C@H]2CN(CC(C)C)[C@H]3[C@@H]4Cc2ccccc2)c1 (relative stereo) [IB-15]	10 to 30	15.9
O=C(NCc1ccccc1)[C@]12NC[C@H]3C[C@H]1CN(Cc1cccc4ccccc14)[C@H]2[C@@H]3Cc1ccccc1 (relative stereo) [IB-42, (3S*,3aS*,6S*,7R*,7aS*)-N,7-dibenzyl-1-(naphthalen-1-ylmethyl)octahydro-3aH-3,6-methanopyrrolo[3,2-b]pyridine-3a-carboxamide]	10 to 30	
CC(C)C[C@@H]1[C@H]2CN[C@@]3(C(=O)NCc4cccc5ccccc45)[C@@H](C2)CN(CC(N)=O)[C@@H]13 (relative stereo) [IB-81]	10 to 30	
NC(=O)CN1C[C@@H]2C[C@@H]3CN[C@]2(C(=O)NCc2cccc4ccccc24)[C@@H]1[C@@H]3Cc1ccccc1 (relative stereo) [IB-82]	10 to 30	
NC(=O)CN1C[C@@H]2C[C@@H]3CN[C@]2(C(=O)NCc2cccc4ccccc24)[C@@H]1[C@@H]3Cc1ccc(O)cc1 (relative stereo) [IB-83]	10 to 30	
CC(C)C[C@@H]1[C@@H]2CN[C@@]3(C(=O)NCc4cccc5ccccc45)[C@@H](C2)CN(CCCNC(=N)N)[C@@H]13 (relative stereo) [IB-164, (3S*,3aS*,6R*,7R*,7aS*)-1-(3-guanidinopropyl)-7-isobutyl-N-(naphthalen-1-ylmethyl)octahydro-3aH-3,6-methanopyrrolo[3,2-b]pyridine-3a-carboxamide]	< 5	
CCN1C[C@H]2C[C@H]3CN(Cc4ccc(C)cc4)[C@@H]([C@@H]2CC(C)C)[C@]31C(=O)NCc1ccccc1 (relative stereo) [IB-880]	< 5	
Cc1ccc(CN2C[C@@H]3C[C@@H]4CN(CC(C)C)[C@]3(C(=O)NCc3ccccc3)[C@@H]2[C@@H]4CC(C)C)cc1 (relative stereo) [IB-881]	< 5	
Cc1ccc(CN2C[C@@H]3C[C@@H]4CN(C(=O)CC(C)C)[C@]3(C(=O)NCc3ccccc3)[C@@H]2[C@@H]4CC(C)C)cc1 (relative stereo) [IB-883]	< 5	
COC(=O)N1C[C@H]2C[C@H]3CN(Cc4ccc(C)cc4)[C@@H]([C@@H]2CC(C)C)[C@]31C(=O)NCc1ccccc1 (relative stereo) [IB-885]	5 to 10	
Cc1ccc(CN2C[C@@H]3C[C@@H]4CN(C(=O)OCC(C)C)[C@]3(C(=O)NCc3ccccc3)[C@@H]2[C@@H]4CC(C)C)cc1 (relative stereo) [IB-886]	5 to 10	
Cc1ccc(CN2C[C@@H]3C[C@@H]4CN(C(N)=O)[C@]3(C(=O)NCc3ccccc3)[C@@H]2[C@@H]4CC(C)C)cc1 (relative stereo) [IB-888]	10 to 30	
CC(C)C[C@@H]1[C@H]2CN[C@@]3(C(=O)NCc4cccc(O)c4)[C@@H](C2)CN(Cc2ccc(N(C)C)cc2)[C@@H]13 (relative stereo) [IB-891]	10 to 30	
CC(C)C[C@@H]1[C@H]2CN[C@@]3(C(=O)NCc4ccc(O)cc4)[C@@H](C2)CN(Cc2ccc(N(C)C)cc2)[C@@H]13 (relative stereo) [IB-892]	10 to 30	
CC(C)CN1C[C@H]2C[C@]3(C(=O)NCc4ccccc4)NC[C@H]2[C@H]1[C@H]3Cc1ccccc1 (relative stereo) [IF-1, (3S*,3aS*,6S*,7R*,7aS*)-N,7-dibenzyl-1-isobutyloctahydro-6H-3,6-methanopyrrolo[3,2-c]pyridine-6-carboxamide]	10 to 30	12.6
CC(C)CNC(=O)[C@@]12C[C@@H]3CN(Cc4ccccc4)[C@@H]([C@@H]3CN1)[C@H]2Cc1ccccc1 (relative stereo) [IF-6]	10 to 30	16.3
CC(C)C[C@@H]1[C@@H]2[C@@H]3CN[C@@]1(C(=O)NCc1ccccc1)C[C@@H]3CN2Cc1ccccc1 (relative stereo) [IF-7]	5 to 10	8.5
CC(C)CCN1C[C@H]2C[C@]3(C(=O)NCc4ccccc4)NC[C@H]2[C@H]1[C@H]3Cc1ccccc1 (relative stereo) [IF-9]	10 to 30	15.6
CC(C)CN1C[C@H]2C[C@]3(C(=O)NCc4ccccc4)NC[C@H]2[C@H]1[C@H]3CCc1ccccc1 (relative stereo) [IF-11]	10 to 30	17.5
Cc1cccc(C[C@@H]2[C@@H]3[C@@H]4CN[C@@]2(C(=O)NCc2ccccc2)C[C@@H]4CN3CC(C)C)c1 (relative stereo) [IF-13]	10 to 30	13.1

Structure (SMILES)	IC50 (read-out: Anti-rabies activity) [µM]	IC50 (read-out: IC50) [µM]
Cc1ccc(C[C@@H]2[C@@H]3[C@@H]4CN[C@@]2(C(=O)NCc2ccccc2)C[C@@H]4CN3CC(C)C)cc1 (relative stereo) [IF-14]	10 to 30	14.1
Cc1cccc(CNC(=O)[C@@]23C[C@@H]4CN(CC(C)C)[C@@H]([C@@H]4CN2)[C@H]3Cc2ccccc2)c1 (relative stereo) [IF-15]	10 to 30	17.1
CC(C)C[C@@H]1[C@@H]2[C@@H]3CN[C@@]1(C(=O)NCc1ccc(Cl)c(Cl)c1)C[C@@H]3CN2Cc1ccccc1 (relative stereo) [IF-20]	10 to 30	11.6
CC(C)CN1C[C@H]2C[C@]3(C(=O)NCc4ccccc4)NC[C@H]2[C@H]1[C@H]3CC1CCCCC1 (relative stereo) [IF-38]	10 to 30	
O=C(NCc1ccccc1)[C@@]12C[C@@H]3CN(Cc4cccc5ccccc45)[C@@H]([C@@H]3CN1)[C@H]2Cc1ccccc1 (relative stereo) [IF-42]	10 to 30	
CCC1N[C@@]2(C(=O)NCc3ccccc3)C[C@@H]3CN(CC(C)C)[C@@H]([C@H]13)[C@H]2Cc1ccccc1 (relative stereo) [IF-69]	10 to 30	16.5
CC(C)C[C@@H]1[C@@H]2[C@@H]3CN[C@@]1(C(=O)NCc1cccc4ccccc14)C[C@@H]3CN2CC(N)=O (relative stereo) [IF-81]	10 to 30	
NC(=O)CN1C[C@H]2C[C@]3(C(=O)NCc4cccc5ccccc45)NC[C@H]2[C@H]1[C@H]3Cc1ccccc1 (relative stereo) [IF-82]	10 to 30	
CC(C)CC[C@@H]1[C@@H]2[C@@H]3CN[C@@]1(C(=O)NCc1cccc4ccccc14)C[C@@H]3CN2CC(N)=O (relative stereo) [IF-84]	10 to 30	
NC(=O)CN1C[C@H]2C[C@]3(C(=O)NCc4cccc5ccccc45)NC[C@H]2[C@H]1[C@H]3CCc1ccccc1 (relative stereo) [IF-85]	10 to 30	
NC(=O)CN1C[C@H]2C[C@]3(C(=O)NCCc4ccccc4)NC[C@H]2[C@H]1[C@H]3Cc1cccc2ccccc12 (relative stereo) [IF-90]	10 to 30	
NC(=O)CN1C[C@H]2C[C@]3(C(=O)NCc4cccc5ccccc45)NC[C@H]2[C@H]1[C@H]3Cc1cccc2ccccc12 (relative stereo) [IF-91]	< 5	
CC(C)CC[C@@H]1[C@@H]2[C@@H]3CN[C@@]1(C(=O)NCc1ccc(F)cc1)C[C@@H]3CN2CC(N)=O (relative stereo) [IF-95]	10 to 30	
O=C(NCc1ccccc1)[C@@]12C[C@@H]3CN(Cc4cccc5ccccc45)[C@@H]([C@@H]3CN1)[C@H]2Cc1ccc(O)cc1 (relative stereo) [IF-505]	< 5	
O=C(NCc1ccc(F)cc1)[C@@]12C[C@@H]3CN(CCO)[C@@H]([C@@H]3CN1)[C@H]2Cc1ccccc1 (relative stereo) [IF-508]	10 to 30	
CCCCCCNC(=O)[C@@]12C[C@@H]3CN(CC4CCCCC4)[C@@H]([C@@H]3CN1)[C@H]2Cc1ccc(O)cc1 (relative stereo) [IF-514]	< 5	
O=C(NCc1ccc(F)cc1)[C@@]12C[C@@H]3CN(CCO)[C@@H]([C@@H]3CN1)[C@H]2CCc1ccccc1 (relative stereo) [IF-516]	< 5	
CC(C)CN1C[C@H]2C[C@]3(C(=O)NCc4ccc(F)cc4)NC[C@H]2[C@H]1[C@H]3CCc1ccccc1 (relative stereo) [IF-525]	10 to 30	
CC(C)C[C@@H]1[C@@H]2[C@@H]3CN[C@@]1(C(=O)NCc1cccc4ccccc14)C[C@@H]3CN2CCO (relative stereo) [IF-542]	< 5	
CC(C)CCN1C[C@H]2C[C@]3(C(=O)NCCc4ccccc4)NC[C@H]2[C@H]1[C@H]3Cc1ccc(O)cc1 (relative stereo) [IF-545]	10 to 30	
CCCCCCNC(=O)[C@@]12C[C@@H]3CN(CCC(C)C)[C@@H]([C@@H]3CN1)[C@H]2CC(C)C (relative stereo) [IF-546]	10 to 30	
CC(C)CCN1C[C@H]2C[C@]3(C(=O)NCc4ccc(F)cc4)NC[C@H]2[C@H]1[C@H]3Cc1ccccc1 (relative stereo) [IF-547]	< 5	
CC(C)CCN1C[C@H]2C[C@]3(C(=O)NCc4ccc(F)cc4)NC[C@H]2[C@H]1[C@H]3CC(C)C (relative stereo) [IF-548]	10 to 30	
CCCCCCNC(=O)[C@@]12C[C@@H]3CN(Cc4ccccc4)[C@@H]([C@@H]3CN1)[C@H]2CC(C)C (relative stereo) [IF-560]	< 5	
O=C(NCc1ccc(F)cc1)[C@@]12C[C@@H]3CN(Cc4ccccc4)[C@@H]([C@@H]3CN1)[C@H]2Cc1ccccc1 (relative stereo) [IF-561]	< 5	
O=C(NCc1ccc(O)cc1)[C@@]12C[C@@H]3CN(Cc4ccccc4)[C@@H]([C@@H]3CN1)[C@H]2CCc1ccccc1 (relative stereo) [IF-565]	< 5	
